The values that follow come from patent publication US10899738B2 (THE REGENTS OF THE UNIVERSITY OF MICHIGAN, priority 2016, dated 2021).

Sequence of menin protein (O00255 whole entry): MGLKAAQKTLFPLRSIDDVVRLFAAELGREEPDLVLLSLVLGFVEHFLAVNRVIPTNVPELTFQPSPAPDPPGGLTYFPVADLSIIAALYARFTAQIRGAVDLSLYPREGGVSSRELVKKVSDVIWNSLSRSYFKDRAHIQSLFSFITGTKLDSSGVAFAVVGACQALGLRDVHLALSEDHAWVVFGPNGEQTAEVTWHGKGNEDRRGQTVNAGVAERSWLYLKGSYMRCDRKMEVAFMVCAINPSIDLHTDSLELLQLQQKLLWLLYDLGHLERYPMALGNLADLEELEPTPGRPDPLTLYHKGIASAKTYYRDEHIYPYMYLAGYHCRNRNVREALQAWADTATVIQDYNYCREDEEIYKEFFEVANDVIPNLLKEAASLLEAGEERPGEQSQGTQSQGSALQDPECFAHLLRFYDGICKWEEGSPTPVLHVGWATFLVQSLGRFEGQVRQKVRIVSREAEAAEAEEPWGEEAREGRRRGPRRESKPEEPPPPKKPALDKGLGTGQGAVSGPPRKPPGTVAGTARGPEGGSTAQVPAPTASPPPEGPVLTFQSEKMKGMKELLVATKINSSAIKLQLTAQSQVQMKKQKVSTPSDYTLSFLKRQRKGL

The first assay addresses menin protein (Homo sapiens (Human), UniProt O00255). As to the kind of experiment: biochemical. It is filed as binding. The note with it: FP competitive binding; menin protein 4 nM, FAM-MM2 probe 2 nM. Put shortly: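 Test compounds displaced FAM-MM2 (2 nM) from 4 nM menin after 30 min equilibration at room temperature in PBS buffer containing bovine γ-globulin, 4% DMSO and Triton X-100. Binding was followed by fluorescence polarization. Competition curves were fitted by nonlinear regression to give IC50 and Ki.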
In the case of `CCN1Cc2ccccc2C(C2CCCC2)(C2CCN(S(=O)(=O)C3CN(c4ccc(S(=O)(=O)c5ccncc5)cc4)C3)CC2)C1` (stereo not shown) [compound 160, 4-cyclopentyl-2-ethyl-4-(1-((1-(4-(pyridin-4-ylsulfonyl)phenyl)azetidin-3-yl)sulfonyl)piperidin-4-yl)-1,2,3,4-tetrahydroisoquinoline], the “Menin Binding Affinity IC50 (μM)” value is “No inhibition”. On the same count and under the same terms, the entry for `O=S(=O)(c1ccc(-n2ccc(CN3CCC(C4(C5CCCC5)NCCc5c(F)cccc54)CC3)c2)cc1)C1CC1` (stereo not shown) [compound 123, 1-cyclopentyl-1-(1-((1-(4-(cyclopropylsulfonyl)phenyl)-1H-pyrrol-3-yl)methyl)piperidin-4-yl)-5-fluoro-1,2,3,4-tetrahydroisoquinoline] is “No inhibition”.

The assay is the same for the next values; noted with them: FP competitive binding; menin protein 4 nM, FAM-MM2 probe 2 nM; read-out: Menin Binding Affinity IC50.
Turning to `CNC(=O)O[C@@H]1CCC[C@H]1C(Cn1ccnc1)(c1ccccc1)C1CCN(CC2CN(c3ccc(S(=O)(=O)c4cnn(C)c4)cc3)C2)CC1` (mixture of isomers) [compound 239, rac-(1R,2S)-2-(2-(1H-imidazol-1-yl)-1-(1-((1-(4-((1-methyl-1H-pyrazol-4-yl)sulfonyl)phenyl)azetidin-3-yl)methyl)piperidin-4-yl)-1-phenethyl)cyclopentyl methylcarbamate], the half-inhibitory concentration (IC50) came to 46 nM. Same read-out and setting: with `CNC(=O)O[C@@H]1CCC[C@H]1C(C#N)(c1ccccc1)C1CCN(CC2CN(c3ccc(C(F)(F)F)cc3)C2)CC1` (mixture of isomers) [compound 368, rac-(1R,2S)-2-(cyano(phenyl)(1-((1-(4-(trifluoromethyl)phenyl)azetidin-3-yl)methyl)piperidin-4-yl)methyl)cyclopentyl methylcarbamate] the figure was 506 nM; with `O=S(=O)(c1ccc(O[C@H]2C[C@@H](N3CCC(C4(C5CCCC5)NCCc5ccccc54)CC3)C2)cc1)C1CC1` (stereo partly shown) [compound 89, 1-cyclopentyl-1-(1-((1s,3s)-3-(4-(cyclopropylsulfonyl)phenoxy)cyclobutyl)piperidin-4-yl)-1,2,3,4-tetrahydroisoquinoline], 13100 nM. Same read-out and setting: with `CCN1Cc2ccccc2C(C2CCCC2)(C2CCN(CC3CN(c4ccc(S(=O)(=O)C5CC5)cc4C)C3)CC2)C1` (stereo not shown) [compound 96, 4-cyclopentyl-4-(1-((1-(4-(cyclopropylsulfonyl)-2-methylphenyl)azetidin-3-yl)methyl)piperidin-4-yl)-2-ethyl-1,2,3,4-tetrahydroisoquinoline] the figure was 587 nM. Still for that read-out and setting: with `CO[C@@H]1CCC[C@H]1C1(C2CCN(CCCOc3ccc(C#N)cc3)CC2)CN(C)Cc2ccccc21` (mixture of isomers) [compound 326, rac-4-(3-(4-(4-((1S,2R)-2-methoxycyclopentyl)-2-methyl-1,2,3,4-tetrahydroisoquinolin-4-yl)piperidin-1-yl)propoxy)benzonitrile] the figure was 2700 nM; with `O=S(=O)(c1ccc(CCN2CCc3cc(C4(C5CCCC5)NCCc5ccccc54)ccc3C2)cc1)C1CC1` (stereo not shown) [compound 99, 1-cyclopentyl-2′-(4-(cyclopropylsulfonyl)phenethyl)-1,1′,2,2′,3,3′,4,4′-octahydro-1,6′-biisoquinoline], 802 nM. Regarding `CC(=O)NCC(c1ccccc1)(C1CCCC1)C1CCN(CCCOc2ccc(C#N)cc2)CC1` (stereo not shown) [compound 40, N-(2-(1-(3-(4-cyanophenoxy)propyl)piperidin-4-yl)-2-cyclopentyl-2-phenylethyl)acetamide], the 50% inhibitory concentration (IC50) was determined as 817 nM. On the same count and under the same terms, with `O=S(=O)(c1ccccc1)c1ccc(N2CC(CN3CCC(C(CN4CCCC4)(C4=CCCC4)c4ccccc4)CC3)C2)cc1` (stereo not shown) [compound 355, 4-(1-(cyclopent-1-en-1-yl)-1-phenyl-2-(pyrrolidin-1-yl)ethyl)-1-((1-(4-(phenylsulfonyl)phenyl)azetidin-3-yl)methyl)piperidine] the figure was 45 nM. The same measure, in the same setting: with `N#Cc1ccc(OCCCN2CCC(C3(C4CCCC4)NCCc4c(F)cccc43)CC2)cc1` (stereo not shown) [compound 29, 4-(3-(4-(1-cyclopentyl-5-fluoro-1,2,3,4-tetrahydroisoquinolin-1-yl)piperidin-1-yl)propoxy)benzonitrile] the figure was 91 nM; with `Cc1cc(C#N)ccc1N1CC(CN2CCC(C3(C4CCCC4)NCCc4ccccc43)CC2)C1` (stereo not shown) [compound 138, 4-(3-((4-(1-cyclopentyl-1,2,3,4-tetrahydroisoquinolin-1-yl)piperidin-1-yl)methyl)azetidin-1-yl)-3-methylbenzonitrile], 99 nM. Take `CS(=O)(=O)c1ccc(OCCCN2CCC(C3(C4CCCC4)NCCc4ccccc43)CC2)cc1` (stereo not shown) [compound 296, 1-cyclopentyl-1-(1-(3-(4-(methylsulfonyl)phenoxy)propyl)piperidin-4-yl)-1,2,3,4-tetrahydroisoquinoline]: the IC50 turned out to be 400 nM. The same measure, in the same setting: with `N#Cc1ccc(N2CCCC(CN3CCC(C4(C5CCCC5)NCCc5ccccc54)CC3)C2)cc1` (stereo not shown) [compound 115, 4-(3-((4-(1-cyclopentyl-1,2,3,4-tetrahydroisoquinolin-1-yl)piperidin-1-yl)methyl)piperidin-1-yl)benzonitrile] the figure was 4000 nM. `N#Cc1ccc(N2CCC(N3CCC(C4(C5CCCC5)NCCc5ccccc54)CC3)CC2)cc1` (stereo not shown) [compound 55, 4-(4-(1-cyclopentyl-1,2,3,4-tetrahydroisoquinolin-1-yl)-[1,4′-bipiperidin]-1′-yl)benzonitrile]: the IC50 was determined as 669 nM.

On to `N#Cc1cc2cc(CN3CCC(CC4(C5CCCC5)NCCc5ccccc54)CC3)ccc2[nH]1` (stereo not shown) [compound 112, 5-((4-((1-cyclopentyl-1,2,3,4-tetrahydroisoquinolin-1-yl)methyl)piperidin-1-yl)methyl)-1H-indole-2-carbonitrile], for which the IC50 was 41600 nM. Still for that read-out and setting: with `CNC(=O)O[C@@H]1CCC[C@H]1C(C#N)(c1ccccc1)C1CCN(CCCOc2ccc(C#N)cc2)CC1` (mixture of isomers) [compound 233, rac-(1R,2S)-2-(cyano(1-(3-(4-cyanophenoxy)propyl)piperidin-4-yl)(phenyl)methyl)cyclopentyl methylcarbamate] the figure was 178 nM; with `CC(=O)N1CCCC(C(C#N)(c2ccccc2)C2CCN(CCCOc3ccc(C#N)cc3)CC2)C1` (stereo not shown) [compound 307, 4-(3-(4-((1-acetylpiperidin-3-yl)(cyano)(phenyl)methyl)piperidin-1-yl)propoxy)benzontrile], 30600 nM. Same read-out and setting: with `Cn1cc(S(=O)(=O)c2ccc(N3CC(CN4CCC(C(CN5CCCC5)(C5=CCCC5)c5ccccc5)CC4)C3)cc2)cn1` (stereo not shown) [compound 357, 4-(1-(cyclopent-1-en-1-yl)-1-phenyl-2-(pyrrolidin-1-yl)ethyl)-1-((1-(4-((1-methyl-1H-pyrazol-4-yl)sulfonyl)phenyl)azetidin-3-yl)methyl)piperidine] the figure was 32 nM. With `CS(=O)(=O)c1ccc(N2CC(CN3CCC(C(C#N)(c4ccccc4)C4CCC(=O)C4)CC3)C2)cc1` (stereo not shown) [compound 169, 2-(1-((1-(4-(methylsulfonyl)phenyl)azetidin-3-yl)methyl)piperidin-4-yl)-2-(3-oxocyclopentyl)-2-phenylacetonitrile], the concentration for half-maximal inhibition (IC50) came out at 49900 nM.

Take `N#Cc1ccc(OCCCN2CCC(C(C#N)(c3ccccc3)C3CCCC3)CC2)cc1` (stereo not shown) [compound 20, 4-(3-(4-(cyano(cyclopentyl)(phenyl)methyl)piperidin-1-yl)propoxy)benzonitrile]: the IC50 came out at 1300 nM. On the same count and under the same terms, with `N#Cc1ccc(OCCCN2CCC(C(C#N)(c3ccccc3)C3CCCCC3)CC2)cc1` (stereo not shown) [compound 294, 4-(3-(4-(cyano(cyclohexyl)(phenyl)methyl)piperidin-1-yl)propoxy)benzonitrile] the figure was 11100 nM; with `N#CC(c1ccccc1)(C1CCN(CC2CN(c3ccc(S(=O)(=O)c4ccccc4)cc3)C2)CC1)[C@@H]1CCC[C@H]1OC(N)=O` (mixture of isomers) [compound 224, rac-(1R,2S)-2-(cyano(phenyl)(1-((1-(4-(phenylsulfonyl)phenyl)azetidin-3-yl)methyl)piperidin-4-yl)methyl)cyclopentyl carbamate], 331 nM.

In the case of `c1ccc(CN2CCC(CC3(C4CCCC4)NCCc4ccccc43)CC2)cc1` (stereo not shown) [compound 106, 1-((1-benzylpiperidin-4-yl)methyl)-1-cyclopentyl-1,2,3,4-tetrahydroisoquinoline], the concentration for half-maximal inhibition (IC50) was found to be 84100 nM. With `CNC(=O)O[C@H]1CCC[C@@H]1C(C#N)(c1ccccc1)C1CCN(CC2CN(c3ccc([N+](=O)[O-])cc3)C2)CC1` (mixture of isomers) [compound 385, rac-(1S,2R)-2-(cyano(1-((1-(4-nitrophenyl)azetidin-3-yl)methyl)piperidin-4-yl)(phenyl)methyl)cyclopentyl methylcarbamate], the IC50 amounted to 13 nM.

Regarding `CNC(=O)O[C@H]1CCC[C@@H]1C(C#N)(c1ccccc1)C1CCN(CC2CN(c3ccc(C(C)(C)C)cc3)C2)CC1` (mixture of isomers) [compound 422, rac-(1S,2R)-2-((1-((1-(4-(tert-butyl)phenyl)azetidin-3-yl)methyl)piperidin-4-yl)(cyano)(phenyl)methyl) cyclopentyl methylcarbamate], the IC50 amounted to 28 nM. Take `CC(=O)OC[C@@H]1CCC[C@H]1C(C#N)(c1ccccc1)C1CCN(CC2CN(c3ccc(S(=O)(=O)C4CC4)cc3)C2)CC1` (mixture of isomers) [compound 262, rac-((1R,2R)-2-(cyano(1-((1-(4-(cyclopropylsulfonyl)phenyl)azetidin-3-yl)methyl)piperidin-4-yl)(phenyl)methyl)cyclopentyl) methyl acetate]: the half-inhibitory concentration (IC50) came out at 6900 nM.

For the compound `CNC(=O)O[C@@H]1CCC[C@H]1C(C#N)(c1ccccc1)C1CCN(CC2(F)CN(c3ccc(S(=O)(=O)c4cnn(C)c4)cc3)C2)CC1` (mixture of isomers) [compound 370, rac-(1R,2S)-2-(cyano(1-((3-fluoro-1-(4-((1-methyl-1H-pyrazol-4-yl)sulfonyl)phenyl)azetidin-3-yl)methyl)piperidin-4-yl)(phenyl)methyl)cyclopentyl methylcarbamate], the IC50 is 3600 nM.

A word on the IC50: it is the point on the concentration scale where inhibition reaches its midpoint.
